What was measured:
[1] = Stability test of crystal: accelerated test; type: physicochemical; conditions: 40° C. ± 2° C., relative humidity of 75% ± 5%
Experimental: (§1) The XRPD was measured using a PHASER BRUKER D2 X-ray powder diffractometer with a wavelength of 1.54060 Å. The melting point was measured using an YRT-3 melting point apparatus (manufactured by Tianjin University). The content was determined by HPLC with reference to Chinese Pharmacopoeia, 2010 edition, Part II, Appendix V D, using octadecylsilane bonded silica gel as a filler, and ammonium formate buffer solution and acetonitrile as a mobile phase; detection wavelength of 260 nm and column temperature of 40° C. The moisture content was determined using a METTLER TOLEDO DL31 Karl Fischer moisture analyzer.
(§2) The conditions and methods for the stability test of crystal were performed according to the requirements of the Chinese Pharmacopoeia (2010 edition), Part II, Appendix XIX C, Guidelines for Stability Tests of Active Pharmaceutical Ingredients and Pharmaceutical Preparations. The crystalline Form A prepared in Example 1 was used as a test sample. A medicinal low-density polyethylene bag was used as an inner package for a sample, and polyester/aluminum/polyethylene composite bag for pharmaceutical packaging was used as an outer packaging material for a sample.

[2] = Stability test of crystal: long-term test; type: physicochemical; conditions: 25° C. ± 2° C., relative humidity of 60% ± 10%
Experimental: as §1, §2

- Content of the crystalline Form A of the maleate of the compound of Formula (I) (HPLC) ([1]; 0 month): 99.4%
- Moisture ([1]; 0 month): 0.17%
- Content of the crystalline Form A of the maleate of the compound of Formula (I) (HPLC) ([1]; 1 month): 99.3%
- Moisture ([1]; 1 month): 0.19%
- Content of the crystalline Form A of the maleate of the compound of Formula (I) (HPLC) ([1]; 2 months): 99.2%
- Moisture ([1]; 2 months): 0.18%
- Content of the crystalline Form A of the maleate of the compound of Formula (I) (HPLC) ([1]; 3 months): 99.2%
- Moisture ([1]; 3 months): 0.19%
- Content of the crystalline Form A of the maleate of the compound of Formula (I) (HPLC) ([1]; 6 months): 99.3%
- Moisture ([1]; 6 months): 0.20%
- Content of the crystalline Form A of the maleate of the compound of Formula (I) (HPLC) ([2]; 0 month): 99.4%
- Moisture ([2]; 0 month): 0.17%
- Content of the crystalline Form A of the maleate of the compound of Formula (I) (HPLC) ([2]; 3 months): 99.3%
- Moisture ([2]; 3 months): 0.19%
- Content of the crystalline Form A of the maleate of the compound of Formula (I) (HPLC) ([2]; 6 months): 99.4%
- Moisture ([2]; 6 months): 0.20%
- Content of the crystalline Form A of the maleate of the compound of Formula (I) (HPLC) ([2]; 9 months): 99.2%
- Moisture ([2]; 9 months): 0.21%
- Content of the crystalline Form A of the maleate of the compound of Formula (I) (HPLC) ([2]; 12 months): 99.4%
- Moisture ([2]; 12 months): 0.22%
- Content of the crystalline Form A of the maleate of the compound of Formula (I) (HPLC) ([2]; 18 months): 99.2%
- Moisture ([2]; 18 months): 0.24%
SMILES: C=CC(=O)N1CCC(Nc2cc3c(Nc4ccc(F)c(Cl)c4)ncnc3cc2OC)CC1

— patent US10858340B2, “Crystal of salt of quinazoline derivative” (CHIA TAI TIANQING PHARMACEUTICAL GROUP CO., LTD., priority 2016, dated 2020)
